Laboratory results: patent US4496587A, “Inhibition of bacterial toxin release by prostaglandins” (priority 1983, dated 1985)

How the values were obtained:
C. difficile [1] = test: cytotoxin in filtrates of C. difficile cultures grown in the presence of prostaglandin (Prostaglandin Incubated with C. difficile), titrated on HFF mono-layers; type: cell-based; conditions: for effectiveness as an antitoxic prostaglandin: by itself, in words; for decrease of the amount of toxin released from C. difficile: assay described in Example 1, pharmacologically practical amount, definition of antitoxic prostaglandin
Description: (§1) Forty-five filtrates of C. difficile cultures grown in the presence of different concentrations of 16,16-dimethyl-PGE2 were assayed for cytotoxin. (ATCC 9689 stands for American Type Culture Collection number 9689, and patients 1, 2, 3, and 4 refer to cultures extracted from various hospital patients.) The first 25 cultures were incubated with the prostaglandin (in the concentrations noted) for 24 hr. These cultures were then filtered and the supernate was submitted for cytotoxicity testing. The remaining 20 cultures were incubated without prostaglandin, filtered and then the prostaglandin was added to each supernate prior to cytotoxicity testing. The cytotoxin assay utilized human skin fibroblasts (HFF) as mono-layers in Costar 24 well-trays. The results are presented as the reciprocal of the cytotoxin dilution (serial 10-fold) causing altered cell morphology for 50% of the cells in the mono-layer. (see Table II.) Thus, 1000 means that a 1:1000 dilution of the filtrate caused an altered cell morphology for 50% of the cells in the mono-layer. Therefore, the higher the number, the more cytotoxin is present.

[2] = by acid in the stomach; cited from earlier work
C. difficile [3] = test: cytotoxin assay, prostaglandin added to supernate after incubation of C. difficile (Prostaglandin Added After Incubation), titrated on HFF mono-layers; type: cell-based
Description: as §1

[4] = system: Human skin fibroblasts (HFF); test: attempted protection of HFF from cytotoxins from different sources (altered cell morphology); type: cell-based
Description: To determine whether the presence of 16,16-dimethyl-PGE2 might interfere with the cytotoxin assay, several concentrations of cytotoxins were assayed in the presence of various concentrations of a prostaglandin.
The cytotoxins used were from hamster cecum, a filtrate of C. difficile broth culture, and the filtate of human feces from a patient with "antibiotic diarrhea". Serial 10-fold dilutions of the cytotoxins were prepared in BME-3% fbs. (BME 3% fbs is basal medium of Eagle with 3% fetal bovine (BOVINE Serum and antibiotics.))
16,16-Dimethyl-PGE2 (5 mg/ml in absolute ethanol) was used and further diluted in absolute ethanol.
Human skin fibroblasts (HFF) monolayers in wells of Costar trays (24 well) were refed with 0.8 ml BME-3% fbs. 0.1 ml of the various prostaglandin concentrations and absolute ethanol alone were added to the appropriate wells. Separate wells were then treated with (0.1 ml) of the appropriate dilution of each cytotoxin. The trays were incubated at 37° and examined microscopically for evidence of altered cell morphology.
Attempted protection of HFF from cytotoxins from different
sources by 16,16-dimethyl-PGE2. The results are expressed as the
number of cells showing evidence of altered morphology due to
cytotoxin. (0 = no change, +1 = 25% of the cells are rounded,
+ 2 = 50% of the cells are rounded, +3 = 75% of the cells are
rounded, and +4 = 100% of the cells are rounded. Tox =
toxic concentration of prostaglandin.)

For `CCCCC[C@@](C)(O)/C=C/[C@H]1[C@H](O)CC(=O)[C@@H]1C/C=C\CCCC(=O)O` [15(R)-15-methyl-PGE2], the “effectiveness as an antitoxic prostaglandin” value (C. difficile [1]) is given as “not highly effective” and the “conversion in mammalian metabolism” value [2] is given as “converted by acid in the stomach to 15(S)-15-methyl-PGE2”.
For `CCCCC[C@](C)(O)/C=C/[C@H]1[C@H](O)CC(=O)[C@@H]1C/C=C\CCCC(=O)O` [15(S)-15-methyl-PGE2], the “decrease of the amount of toxin released from C. difficile” value (from here on “decrease of the amount of toxin released”) (C. difficile [1]) was “at least 90%” and the “effectiveness as an antitoxic prostaglandin” value (C. difficile [1]) was “effective”.
For `CCCCC(C)(C)[C@@](C)(O)/C=C/[C@H]1[C@H](O)CC(=O)[C@@H]1C/C=C\CCCC(=O)O` [15(S)-16,16-trimethyl-PGE2], the “decrease of the amount of toxin released” value (C. difficile [1]) was “at least 90%”.
In the case of `CCCCC(C)(C)[C@H](O)/C=C/[C@H]1[C@H](O)CC(=O)[C@@H]1C/C=C\CCCC(=O)O` [16,16-dimethyl-PGE2], the “Cytotoxin Dilution (reciprocal of the cytotoxin dilution causing altered cell morphology for 50% of the cells)” value (C. difficile [1]; Control, 24 hr, prostaglandin 1 mcg/ml) is reported as < 10, the “Cytotoxin Dilution (reciprocal of the cytotoxin dilution causing altered cell morphology for 50% of the cells)” value (C. difficile [1]; Control, 24 hr, prostaglandin 10 mcg/ml) is reported as < 10 and the “Cytotoxin Dilution (reciprocal of the cytotoxin dilution causing altered cell morphology for 50% of the cells)” value (C. difficile [1]; Control, 24 hr, prostaglandin 50 mcg/ml) is reported as < 10. For the same molecule, the “amount of toxin with increasing amount of prostaglandin” value (C. difficile [1]; Table II overall) was “as the amount of prostaglandin increases, the amount of toxin decreases”, the “decrease of the amount of toxin released” value (C. difficile [1]) was “at least 90%” and the “Cytotoxin Dilution (reciprocal of the cytotoxin dilution causing altered cell morphology for 50% of the cells)” value (C. difficile [1]; incubated with C. difficile ATCC #9689, 24 hr, prostaglandin 1 mcg/ml) was 100-1000. The “Cytotoxin Dilution (reciprocal of the cytotoxin dilution causing altered cell morphology for 50% of the cells)” value (C. difficile [1]; incubated with C. difficile ATCC #9689, 24 hr, prostaglandin 10 mcg/ml) was 100, the “Cytotoxin Dilution (reciprocal of the cytotoxin dilution causing altered cell morphology for 50% of the cells)” value (C. difficile [1]; incubated with C. difficile ATCC #9689, 24 hr, prostaglandin 50 mcg/ml) was 10 and the “Cytotoxin Dilution (reciprocal of the cytotoxin dilution causing altered cell morphology for 50% of the cells)” value (C. difficile [1]; incubated with C. difficile strain Patient 1, 24 hr, prostaglandin 1 mcg/ml) was 100-1000. For the same molecule, the “Cytotoxin Dilution (reciprocal of the cytotoxin dilution causing altered cell morphology for 50% of the cells)” value (C. difficile [1]; incubated with C. difficile strain Patient 1, 24 hr, prostaglandin 10 mcg/ml) was 10, the “Cytotoxin Dilution (reciprocal of the cytotoxin dilution causing altered cell morphology for 50% of the cells)” value (C. difficile [1]; incubated with C. difficile strain Patient 1, 24 hr, prostaglandin 50 mcg/ml) was 10 and the “Cytotoxin Dilution (reciprocal of the cytotoxin dilution causing altered cell morphology for 50% of the cells)” value (C. difficile [1]; incubated with C. difficile strain Patient 2, 24 hr, prostaglandin 1 mcg/ml) was 10-100. For the same molecule, the “Cytotoxin Dilution (reciprocal of the cytotoxin dilution causing altered cell morphology for 50% of the cells)” value (C. difficile [1]; incubated with C. difficile strain Patient 2, 24 hr, prostaglandin 10 mcg/ml) was 10-100, the “Cytotoxin Dilution (reciprocal of the cytotoxin dilution causing altered cell morphology for 50% of the cells)” value (C. difficile [1]; incubated with C. difficile strain Patient 2, 24 hr, prostaglandin 50 mcg/ml) was < 10 and the “Cytotoxin Dilution (reciprocal of the cytotoxin dilution causing altered cell morphology for 50% of the cells)” value (C. difficile [1]; incubated with C. difficile strain Patient 3, 24 hr, prostaglandin 1 mcg/ml) was < 10. The “Cytotoxin Dilution (reciprocal of the cytotoxin dilution causing altered cell morphology for 50% of the cells)” value (C. difficile [1]; incubated with C. difficile strain Patient 3, 24 hr, prostaglandin 10 mcg/ml) was < 10, the “Cytotoxin Dilution (reciprocal of the cytotoxin dilution causing altered cell morphology for 50% of the cells)” value (C. difficile [1]; incubated with C. difficile strain Patient 3, 24 hr, prostaglandin 50 mcg/ml) was < 10 and the “Cytotoxin Dilution (reciprocal of the cytotoxin dilution causing altered cell morphology for 50% of the cells)” value (C. difficile [1]; incubated with C. difficile strain Patient 4, 24 hr, prostaglandin 1 mcg/ml) was 100. The “Cytotoxin Dilution (reciprocal of the cytotoxin dilution causing altered cell morphology for 50% of the cells)” value (C. difficile [1]; incubated with C. difficile strain Patient 4, 24 hr, prostaglandin 10 mcg/ml) was 10-100, the “Cytotoxin Dilution (reciprocal of the cytotoxin dilution causing altered cell morphology for 50% of the cells)” value (C. difficile [1]; incubated with C. difficile strain Patient 4, 24 hr, prostaglandin 50 mcg/ml) was 10 and the “Cytotoxin Dilution (reciprocal of the cytotoxin dilution causing altered cell morphology for 50% of the cells)” value (C. difficile [3]; ATCC #9689, prostaglandin 1 mcg/ml) was 100-1000. The “Cytotoxin Dilution (reciprocal of the cytotoxin dilution causing altered cell morphology for 50% of the cells)” value (C. difficile [3]; ATCC #9689, prostaglandin 10 mcg/ml) was 10-100, the “Cytotoxin Dilution (reciprocal of the cytotoxin dilution causing altered cell morphology for 50% of the cells)” value (C. difficile [3]; ATCC #9689, prostaglandin 50 mcg/ml) was 10 and the “Cytotoxin Dilution (reciprocal of the cytotoxin dilution causing altered cell morphology for 50% of the cells)” value (C. difficile [3]; Patient 1, prostaglandin 1 mcg/ml) was 1000. For the same molecule, the “Cytotoxin Dilution (reciprocal of the cytotoxin dilution causing altered cell morphology for 50% of the cells)” value (C. difficile [3]; Patient 1, prostaglandin 10 mcg/ml) was < 100, the “Cytotoxin Dilution (reciprocal of the cytotoxin dilution causing altered cell morphology for 50% of the cells)” value (C. difficile [3]; Patient 1, prostaglandin 50 mcg/ml) was 100 and the “Cytotoxin Dilution (reciprocal of the cytotoxin dilution causing altered cell morphology for 50% of the cells)” value (C. difficile [3]; Patient 2, prostaglandin 1 mcg/ml) was 10. For the same molecule, the “Cytotoxin Dilution (reciprocal of the cytotoxin dilution causing altered cell morphology for 50% of the cells)” value (C. difficile [3]; Patient 2, prostaglandin 10 mcg/ml) was 10, the “Cytotoxin Dilution (reciprocal of the cytotoxin dilution causing altered cell morphology for 50% of the cells)” value (C. difficile [3]; Patient 2, prostaglandin 50 mcg/ml) was < 10 and the “Cytotoxin Dilution (reciprocal of the cytotoxin dilution causing altered cell morphology for 50% of the cells)” value (C. difficile [3]; Patient 3, prostaglandin 1 mcg/ml) was < 10. The “Cytotoxin Dilution (reciprocal of the cytotoxin dilution causing altered cell morphology for 50% of the cells)” value (C. difficile [3]; Patient 3, prostaglandin 10 mcg/ml) was < 10, the “Cytotoxin Dilution (reciprocal of the cytotoxin dilution causing altered cell morphology for 50% of the cells)” value (C. difficile [3]; Patient 4, prostaglandin 1 mcg/ml) was 100-1000 and the “Cytotoxin Dilution (reciprocal of the cytotoxin dilution causing altered cell morphology for 50% of the cells)” value (C. difficile [3]; Patient 4, prostaglandin 10 mcg/ml) was 100. For the same molecule, the “Cytotoxin Dilution (reciprocal of the cytotoxin dilution causing altered cell morphology for 50% of the cells)” value (C. difficile [3]; Patient 4, prostaglandin 50 mcg/ml) was 10-100, the “cells showing evidence of altered morphology due to cytotoxin” value ([4]; C. difficile filtrate 1:10, prostaglandin 0.01 mcg/ml) was 4 and the “cells showing evidence of altered morphology due to cytotoxin” value ([4]; C. difficile filtrate 1:10, prostaglandin 0.1 mcg/ml) was 4. For the same molecule, the “cells showing evidence of altered morphology due to cytotoxin” value ([4]; C. difficile filtrate 1:10, prostaglandin 1 mcg/ml) was 4, the “cells showing evidence of altered morphology due to cytotoxin” value ([4]; C. difficile filtrate 1:10, prostaglandin 10 mcg/ml) was 4 and the “cells showing evidence of altered morphology due to cytotoxin” value ([4]; C. difficile filtrate 1:100, prostaglandin 0.01 mcg/ml) was 4. For the same molecule, the “cells showing evidence of altered morphology due to cytotoxin” value ([4]; C. difficile filtrate 1:100, prostaglandin 0.1 mcg/ml) was 4, the “cells showing evidence of altered morphology due to cytotoxin” value ([4]; C. difficile filtrate 1:100, prostaglandin 1 mcg/ml) was 4 and the “cells showing evidence of altered morphology due to cytotoxin” value ([4]; C. difficile filtrate 1:100, prostaglandin 10 mcg/ml) was 4. For the same molecule, the “cells showing evidence of altered morphology due to cytotoxin” value ([4]; C. difficile filtrate 1:1000, prostaglandin 0.01 mcg/ml) was 3, the “cells showing evidence of altered morphology due to cytotoxin” value ([4]; C. difficile filtrate 1:1000, prostaglandin 0.1 mcg/ml) was 3 and the “cells showing evidence of altered morphology due to cytotoxin” value ([4]; C. difficile filtrate 1:1000, prostaglandin 1 mcg/ml) was 3. The “cells showing evidence of altered morphology due to cytotoxin” value ([4]; C. difficile filtrate 1:1000, prostaglandin 10 mcg/ml) was 3, the “cells showing evidence of altered morphology due to cytotoxin” value ([4]; Human cytotoxin 1:10, prostaglandin 0.01 mcg/ml) was 4 and the “cells showing evidence of altered morphology due to cytotoxin” value ([4]; Human cytotoxin 1:10, prostaglandin 0.1 mcg/ml) was 4. The “cells showing evidence of altered morphology due to cytotoxin” value ([4]; Human cytotoxin 1:10, prostaglandin 1 mcg/ml) was 4, the “cells showing evidence of altered morphology due to cytotoxin” value ([4]; Human cytotoxin 1:10, prostaglandin 10 mcg/ml) was 4 and the “cells showing evidence of altered morphology due to cytotoxin” value ([4]; Human cytotoxin 1:100, prostaglandin 0.01 mcg/ml) was 4. The “cells showing evidence of altered morphology due to cytotoxin” value ([4]; Human cytotoxin 1:100, prostaglandin 0.1 mcg/ml) was 4, the “cells showing evidence of altered morphology due to cytotoxin” value ([4]; Human cytotoxin 1:100, prostaglandin 1 mcg/ml) was 4 and the “cells showing evidence of altered morphology due to cytotoxin” value ([4]; Human cytotoxin 1:100, prostaglandin 10 mcg/ml) was 3. For the same molecule, the “cells showing evidence of altered morphology due to cytotoxin” value ([4]; Human cytotoxin 1:1000, prostaglandin 0.01 mcg/ml) was 1, the “cells showing evidence of altered morphology due to cytotoxin” value ([4]; Human cytotoxin 1:1000, prostaglandin 0.1 mcg/ml) was 1 and the “cells showing evidence of altered morphology due to cytotoxin” value ([4]; Human cytotoxin 1:1000, prostaglandin 1 mcg/ml) was 1. For the same molecule, the “cells showing evidence of altered morphology due to cytotoxin” value ([4]; Human cytotoxin 1:1000, prostaglandin 10 mcg/ml) was 1, the “effect on the interaction of the cytotoxin with the cell” value ([4]; conclusion from Table III) was “did not affect the interaction of the cytotoxin with the cell” and the “protecting fibroblasts from morphological changes due to the action of the cytotoxin” value ([4]; cytotoxins from three different sources) was “ineffective”.
